According to patent US20190046490A1, “METHODS OF TREATING LACTOSE INTOLERANCE” (Nogra Pharma Limited, priority 2016, published 2019):
Entries after “also recorded” stand apart in the source; their conditions may differ.

Columns and labels:
[1] = tested on: LCT in PPARγ knock-down Caco-2 cells; assay: LCT expression and activity in PPARγ knock-down Caco-2 cells (ShPPAR); assay type: cell-based, human; conditions: ShPPAR vs ShLuc Caco-2 cells, 250-1000 μM
Description: (§1) Expression of genes of interest was quantified by quantitative PCR (qPCR) of corresponding reverse transcribed mRNA. One μg of total RNA was reverse-transcribed into cDNA using the High Capacity cDNA Archive kit (Applied Biosystems). Amplification was performed using an ABI PRISM 7000 sequence detection system (Applied Biosystem) using Power SYBR® Green PCR master Mix (Applied Biosystem). Primer pairs for each human transcript were chosen with qPrimer depot software (at primerdepot.nci.nih.gov.). Quantification of qPCR signals was performed using ΔCt relative quantification method using GAPDH as a reference gene for human and rat samples and β-Actin for mouse samples. Values were represented in terms of relative quantity of mRNA level variation or fold increase compared to control conditions.
Lactase activity was evaluated by using a glucose oxidase method (Glucose Assay Kit, Sigma). […] For Caco-2 cells, lactase activity was determined directly from the cell monolayer. […] The reaction was stopped with 100 μl of H2SO4 and read by spectrophotometry at 450 nm. When lactase activity was determined from intestinal sample, tissue samples were first dounce-homogenized in 0.9% NaCl on crushed ice. […] For each experiment, the background attributed to the remaining glucose in the samples was measured by incubating cells or cell extracts in lactose-free buffer. […]

[2] = tested on: PPARγ mRNA; assay: PPARγ mRNA in duodenum and jejunum of rats after 5 days oral gavage; assay type: in vivo, Sprague Dawley rats; conditions: 200 mg/kg/day oral gavage 5 days
Description: as §1
(§2) To determine whether CLA induces LCT expression and activity in vivo, Sprague Dawley rats were fed a control diet and administered either carboxymethyl cellulose (CMC; 0.5%), CLA, or GED for 5 days, after which levels of PPARγ mRNA, LCT mRNA, and LCT activity were measured. CLA was administered at 200 mg/kg/day by oral gavage, and GED was administered at 30 mg/kg/day by oral gavage (FIG. 21A).

[3] = tested on: LCT activity; assay: Lactase activity in Caco-2 cells (glucose oxidase method); assay type: cell-based, human
Description: (§3) Lactase activity was evaluated by using a glucose oxidase method (Glucose Assay Kit, Sigma). This lactase assay is based on the measurement of the amount of glucose produced following the action of lactase by incubating samples with a lactose buffer solution (0.056 mol/l lactose in a 0.1 mol/l Na-maleate buffer). For Caco-2 cells, lactase activity was determined directly from the cell monolayer. After extensive washing, the cell monolayer was incubated with lactose buffer for one hour at 37° C. The supernatant was recovered, 50 μl were diluted with 100 μl of glucose oxidase reagent and incubated at 37° C. for 1 hour. The reaction was stopped with 100 μl of H2SO4 and read by spectrophotometry at 450 nm. When lactase activity was determined from intestinal sample, tissue samples were first dounce-homogenized in 0.9% NaCl on crushed ice. These homogenates were then diluted in 0.9% NaCl ( 1/500) and 50 μl of dilution were incubated with lactose buffer and used to determine lactase activity. For each experiment, the background attributed to the remaining glucose in the samples was measured by incubating cells or cell extracts in lactose-free buffer.

[4] = tested on: LCT mRNA; assay: Quantitative PCR of LCT mRNA expression in Caco-2 cells; assay type: cell-based, human; conditions: for LCT mRNA expression relative to control (qPCR): 24 hours, normalized to GAPDH
Description: (§4) Caco-2 (colonic adenocarcinoma) cells were grown in Dulbecco's Modified Eagle's Medium (DMEM, Invitrogen, Life Technologies, Cergy-Pontoise, France) supplemented with 20% foetal calf serum (FCS, Dutscher, Brumath, France), 1% penicillin-streptomycin (5 ml/l) (Invitrogen, Life technologies) and 1% non-essential amino acids (5 ml/l) (Invitrogen, Life technologies). All cell lines were cultured as confluent monolayers at 37° C. in a controlled, 5% CO2 atmosphere.
(§5) For cell stimulations, 1×10^6 cells per well were seeded in 6-well plates. Cells were serum deprived for 16 hours prior to stimulation in order to synchronize the cells. Cells were treated with GED (Nogra Pharma Ltd, Ireland), pioglitazone (1 μM, Sigma-Aldrich) or CLA (various concentrations, Sigma-Aldrich). When necessary, the DMSO vehicle (Sigma-Aldrich) was used as control. After 24 hours of stimulation, cells were washed three times with sterile PBS before RNA extraction. Cell stimulations were performed in 4 replicates for microarray analysis and in 3, 4 or 6 replicates for other stimulations.
(§6) Cells were lysed with lysis buffer (RA1, Macherey-Nagel) containing 1% β-mercaptoethanol. Total RNA was extracted with a Nucleospin RNA kit (Macherey-Nagel, Hoerdt, France). After RNAse inactivation, total RNA was cleaned of genomic DNA traces by DNAse treatment and eluted in RNAse-free, DEPC-water. The purity of the RNA was evaluated by UV spectroscopy on a Nanodrop system (Nyxor Biotech, Paris, France) from 220 to 350 nm. Before microarray experiments, RNAs were also profiled on an Agilent 2100 bioanalyzer. One μg of total RNA with a minimum concentration of 50 ng/μl was used in the microarray and qRT-PCR analysis.
as §1

[5] = tested on: LCT; assay: LCT mRNA and LCT activity in duodenum and jejunum of rats after 5 days oral gavage; assay type: in vivo, Sprague Dawley rats; conditions: oral gavage 5 days, GED 30 mg/kg/day, CLA 200 mg/kg/day
Description: as §1, §3, §2

[6] = tested on: LCT gene; assay: Transcriptome microarray analysis of LCT mRNA expression in Caco-2 cells treated with PPARγ modulators; assay type: cell-based, human; conditions: vs unstimulated cells
Description: as §4, §5, §6
Dual-colour gene expression microarrays were used to compare the cRNA from the samples. 44,000 genes were screened. The RNAs from the samples were first reverse-transcribed into cDNA (Affinity-Script RT, Agilent), which were then used as the substrate for the synthesis and amplification of cRNA by T7 RNA polymerase in the presence of cyanine 3-CTP for the CTL sample (green fluorescence) and cyanine 5-CTP for the PPAR-γ y modulator sample (red fluorescence). The two-labelled cRNAs were mixed, hybridized on the same array (G4851A Agilent 8×44K) and then scanned (with an Agilent G2505B scanner). Fluorescence was visualized after laser excitation and the relative intensities of the two fluorophores were expressed as a ratio, in order to yield the over- or under-expression status of each gene (using GeneSpring software (Agilent)). This analysis was performed for each PPAR-γ modulator.

[7] = tested on: Caco-2 cells; assay: Glucose uptake assay (2-DG6P) in Caco-2 cells; assay type: cell-based, human; conditions: 1 μM, 24 h
Description: Glucose uptake was evaluated by using the glucose uptake colorimetric assay kit (Sigma-Aldrich) according to the manufacturer's instructions. Briefly, Caco-2 cells were seeded into a 96-well plate at a density of 30,000 cells per well. Cells were serum deprived for 16 hours prior to stimulation in order to synchronize the cells. Cells were treated with GED (1 mM) or pioglitazone (1 μM) for 24 h. Cells were then washed 3 times with PBS and were glucose-starved by incubating with 100 μl of KRPH buffer (Krebs-Ringer-Phosphate-HEPES (KRPH) Buffer—20 mM HEPES, 5 mM KH2PO4, 1 mM MgSO4, 1 mM CaCl2, 136 mM NaCl, and 4.7 mM KCl, pH 7.4) containing 2% BSA for 40 minutes. 10 μl of 2-deoxyglucose (2-DG; 10 mM) was then added and incubation was continued for 20 minutes. 2-DG is taken up by the cells and phosphorylated by hexokinase to 2-DG6P, which cannot be further metabolized and accumulates in cells. Following incubation, cells were washed 3 times with PBS and lysed with 80 μl of the extraction buffer provided. The amount of 2-DG6P (which is directly proportional to glucose uptake by the cells) was determined by a colorimetric detection assay according to the manufacturer's protocol.

With `CCCCC/C=C\C=C\CCCCCCCCC(=O)O` [CLA, trans-10, cis-12 conjugated linoleic acid (CLA) isomer] the “CLA-dependent induction of LCT activity in PPARγ knock-down cells” value [1] was “strongly compromised”, the “CLA-dependent induction of LCT expression in PPARγ knock-down cells” value [1] was “strongly compromised” and the “PPARγ mRNA expression levels in duodenum relative to CMC control” value [2] was “significant increase”. For the same compound, the “PPARγ mRNA expression levels in jejunum relative to CMC control” value [2] was “significant increase”, the “increase in LCT activity over control levels, compared to 1 mM GED” value ([3]; Caco-2 cells, 1 mM) was 2 fold and the “LCT activity in Caco-2 cells” value ([3]; concentrations of 100 mM or more) was “significantly increased”. The “LCT mRNA expression relative to control (qPCR)” value ([4]; 1 mM) was “as efficiently as 1 mM GED”, the “LCT activity in duodenal tissue compared to CMC control” value [5] was “significant increase” and the “LCT mRNA expression in duodenal tissue relative to CMC control” value [5] was “significant increase”. For the same compound, the “LCT mRNA expression in jejunal tissue relative to CMC control” value [5] was “not”.

In the case of `Nc1ccc(O)c(C(=O)O)c1` [5ASA, 5-aminosalicylic acid], the “LCT activity relative to control cells” value ([3]; Caco-2 cells, 30 mM) is reported as “not”, the “LCT mRNA expression relative to control (qPCR)” value ([4]; 30 mM) is reported as “Significant increases; also recorded: induction” and the “Fold Lactase RNA” value ([6]; 30 mM) is reported as 8.7 fold.

`CCc1ccc(CCOc2ccc(CC3SC(=O)NC3=O)cc2)nc1` (stereo not drawn) [Pioglitazone, pioglitazone] was tested, and the “LCT activity compared to untreated cells” value ([3]; Caco-2 cells, 1 μM, vs DMSO) was over 2 fold, the “Fold Lactase RNA” value ([6]; 1 μM) was 17.9 fold and the “Fold Lactase RNA” value ([6]; 1 μM, listed as Pio) was 17.93 fold. For the same compound, the “glucose uptake of Caco-2 cells” value [7] was “did not significantly alter”.

For `O=C(Nc1ccccc1)c1cc([N+](=O)[O-])ccc1Cl` [GW9662], the “ability of GED to induce increased LCT mRNA expression in the presence of the antagonist” value ([4]; GED plus GW9662) was “markedly reduced”.
